Each structure is given as a SMILES string. pIC50: −log10 of the molar value. Where two headings read alike, the source gives them in different places.

In data set [1] the test system is VeroE6 cells. The data set can be described thus: In vitro cytotoxicity (Hoechst 33342 / Sytox orange imaging). It counts as cell-based. Here is the method: The cytotoxicity assay was done in a 96-well plate format in 3 wells for each sample. 1×10e4 VeroE6 cells were plated per well and incubated at 37° C. overnight for the monolayer formation. Next day, cells were incubated with 1 μl (5.5 mg/ml solution in 200 μl) A. paniculate at the concentration with final DMSO conc. being 0.5%. The control cells were incubated with 0.5% DMSO only. The cells without test substance was the control for water soluble compounds. 24 and 48 hours later, cells were stained with Hoechst 33342 and Sytox orange dye. Images were taken at 10×, 16 images per well, which covers 90% of well area using ImageXpress Microconfocal (Molecular Devices). Hoechst 33342 nucleic acid stain is a popular cell-permeant nuclear counterstain that emits blue fluorescence when bound to dsDNA. It stains all the live and dead cells. Sytox orange dye stains nucleic acids in cells with compromised membranes. This stain is an indicator of cell death. First, the software will count total number of cells in the Hoechst image. In the Sytox image, it will count, among Hoechst positive cells, how many cells are positive for sytox.

Data set [2] deals with SARS-COV2. The data set can be described thus: microbe, parasite or virus in culture. In kind it is cell-based. The conditions noted are these: Severe acute respiratory syndrome coronavirus 2, Vero C1008, 48 h.

With `CCC(CC)COC(=O)[C@H](C)N[P@](=O)(OC[C@H]1O[C@@](C#N)(c2ccc3c(N)ncnn23)[C@H](O)[C@@H]1O)Oc1ccccc1` [Remdesivir], the results for the “percentage of cell viability” value in data set [1] (24th hour of treatment) and in data set [1] (48th hour of treatment) were 99.23% and 94.37%, respectively. Besides, the pIC50 was 6.82 in data set [2] (read-out: IC50 for E gene) and 6.96 in data set [2] (read-out: IC50 for N gene).

Usually pIC50 stands for the IC50 on a negative log10 scale, so that one unit is a factor of ten.
